Laboratory results: article PMC12444472, “BCI inhibits MKP3 by targeting the kinase-binding domain and disrupting ERK2 interaction” (The Journal of Biological Chemistry, 2025)
Where “and” joins values, the source holds several entries; their conditions need not be identical. Equal values may be shown once. Entries after “also recorded” stand apart in the source; their conditions may differ.

What was measured:
Test in all cases: MST affinity measurement
MKPX^KBD = target: T1, MKPX^KBD (Homo sapiens, UniProt Q16829); settings: one-site binding model, mean ± SD of three experiments
T1 construct: MKPX(1–140) (MKPX^KBD); made in house; host or cells: Escherichia coli BL21(DE3)
T1 sequence (Q16829 1-140 isoform Q16829-2): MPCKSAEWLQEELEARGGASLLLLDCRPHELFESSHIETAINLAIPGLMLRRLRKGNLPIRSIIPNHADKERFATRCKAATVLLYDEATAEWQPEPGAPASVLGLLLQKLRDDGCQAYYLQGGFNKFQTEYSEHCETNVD
Description: (§1) MST measurements were performed using fluorescently labeled proteins and the inhibitor BCI (CAS: 1245792-51-1; TargetMol) on a Monolith instrument (NanoTemper Technologies). The RED–Tris–NTA second-generation dye was dissolved in MST buffer (20 mM Hepes, pH 7.4, 200 mM NaCl, and 0.05% Tween-20) to prepare a 5 μM stock solution. Fluorescent labeling of MKP proteins followed the standard protocol of the MO-L018 RED–Tris–NTA protein labeling kit, leveraging the His-tag–dye interaction.
(§2) The BCI compound was prepared as a 600 to 750 μM stock solution in MST buffer with 10% DMSO to enhance solubility, followed by a 16-point serial dilution. The diluted BCI solutions were thoroughly mixed with labeled MKP proteins (50 nM) at a 1:1 volume ratio, yielding a final volume of 10 μl. The reaction mixtures were incubated in the dark for 10 min at room temperature before being loaded into standard glass capillaries. Measurements were carried out on the Monolith instrument (100% LED, 40% IR laser power) with a 20 s laser on time. The normalized fluorescence values from triplicate measurements were averaged at each concentration and fitted to a 1:1 binding model using the KD model in MO.Affinity software (v3.0.5, NanoTemper Technologies) to determine the binding affinities between MKP proteins and the BCI inhibitor. The final reported Kd value represents the mean ± SD of Kd values obtained from three independent experiments, each fitted separately.

MKP5^KBD = target: T2, MKP5^KBD (Homo sapiens, UniProt Q9Y6W6); settings: one-site binding model, mean ± SD of three experiments
T2 construct: MKP5(139–287) (MKP5^KBD); made in house; host or cells: Escherichia coli BL21(DE3)
T2 sequence (Q9Y6W6 139-287): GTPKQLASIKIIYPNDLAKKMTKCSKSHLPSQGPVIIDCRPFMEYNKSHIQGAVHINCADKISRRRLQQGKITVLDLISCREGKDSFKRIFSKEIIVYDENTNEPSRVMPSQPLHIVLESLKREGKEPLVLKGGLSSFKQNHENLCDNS
Description: as §1, §2

MKP3^FL = target: T3, MKP3^FL (Homo sapiens, UniProt Q16828); settings: one-site binding model, mean ± SD of three experiments
T3 construct: MKP3(1–381) (MKP3^FL); made in house; host or cells: Escherichia coli BL21(DE3)
T3 sequence (Q16828 1-381): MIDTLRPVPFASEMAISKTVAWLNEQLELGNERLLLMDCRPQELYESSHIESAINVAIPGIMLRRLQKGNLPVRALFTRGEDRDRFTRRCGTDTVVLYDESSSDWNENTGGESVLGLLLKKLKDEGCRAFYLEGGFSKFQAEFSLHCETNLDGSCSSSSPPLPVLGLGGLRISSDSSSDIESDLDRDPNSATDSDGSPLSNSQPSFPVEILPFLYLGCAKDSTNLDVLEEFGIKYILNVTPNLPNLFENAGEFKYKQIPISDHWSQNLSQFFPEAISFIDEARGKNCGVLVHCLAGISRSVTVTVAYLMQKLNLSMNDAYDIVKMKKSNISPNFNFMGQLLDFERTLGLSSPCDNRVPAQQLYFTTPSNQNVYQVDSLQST
Description: as §1, §2

MKP1^KBD = target: T4, MKP1^KBD (Homo sapiens, UniProt P28562); settings: one-site binding model, mean ± SD of three experiments
T4 construct: MKP1(1–141) (MKP1^KBD); made in house; host or cells: Escherichia coli BL21(DE3)
T4 sequence (P28562 1-141): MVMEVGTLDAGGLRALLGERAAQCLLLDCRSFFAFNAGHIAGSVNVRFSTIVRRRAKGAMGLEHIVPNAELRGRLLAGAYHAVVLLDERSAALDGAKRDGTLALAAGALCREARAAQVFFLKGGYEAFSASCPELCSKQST
Description: as §1, §2

MKP3^KBD = target: T5, MKP3^KBD (Homo sapiens, UniProt Q16828); settings: one-site binding model, mean ± SD of three experiments
T5 construct: MKP3(1–154) (MKP3^KBD); made in house; host or cells: Escherichia coli BL21(DE3)
T5 sequence (Q16828 1-154): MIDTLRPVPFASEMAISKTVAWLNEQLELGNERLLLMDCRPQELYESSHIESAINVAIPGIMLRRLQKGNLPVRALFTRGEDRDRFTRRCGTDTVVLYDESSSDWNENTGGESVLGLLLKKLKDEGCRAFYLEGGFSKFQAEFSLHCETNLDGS
Description: as §1, §2

MKP2^KBD = target: T6, MKP2^KBD (Homo sapiens, UniProt Q13115); settings: one-site binding model, mean ± SD of three experiments
T6 construct: MKP2(5–159) (MKP2^KBD); made in house; host or cells: Escherichia coli BL21(DE3)
T6 sequence (Q13115 5-159): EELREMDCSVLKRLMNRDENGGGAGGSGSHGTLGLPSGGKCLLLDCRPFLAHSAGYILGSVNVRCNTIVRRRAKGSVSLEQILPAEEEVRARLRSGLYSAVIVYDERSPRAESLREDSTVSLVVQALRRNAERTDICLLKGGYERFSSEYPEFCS
Description: as §1, §2

MKP5^CD = target: T7, MKP5^CD (Homo sapiens, UniProt Q9Y6W6); format: binding
T7 construct: MKP5(320–467) (MKP5^CD); made in house; host or cells: Escherichia coli BL21(DE3)
T7 sequence (Q9Y6W6 320-467): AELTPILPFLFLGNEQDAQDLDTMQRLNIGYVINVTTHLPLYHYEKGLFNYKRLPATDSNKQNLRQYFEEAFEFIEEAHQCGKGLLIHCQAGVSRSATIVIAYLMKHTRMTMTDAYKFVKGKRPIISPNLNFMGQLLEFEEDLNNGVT
Description: as §1
as §2, with “The final reported Kd value represents the mean ± SD of Kd values obtained from three independent experiments, each fitted separately.” left out

MKP3^CD = target: T8, MKP3^CD (Homo sapiens, UniProt Q16828); format: binding
T8 construct: ^15N-labeled MKP3^1–154, MKP3^14–152, MKP3^204–350; made in house; host or cells: Escherichia coli BL21(DE3)
T8 sequence (Q16828 204-350): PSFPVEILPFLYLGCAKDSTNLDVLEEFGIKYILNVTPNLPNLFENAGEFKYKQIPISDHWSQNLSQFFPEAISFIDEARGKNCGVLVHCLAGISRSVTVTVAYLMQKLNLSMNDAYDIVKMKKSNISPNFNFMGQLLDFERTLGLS
Description: as §1
as §2, with “The final reported Kd value represents the mean ± SD of Kd values obtained from three independent experiments, each fitted separately.” left out

O=C1/C(=C/c2ccccc2)C(NC2CCCCC2)c2ccccc21 (centres unmarked) [BCI, (E)-2-benzylidene-3-(cyclohexylamino)-2,3-dihydro-1H-inden-1-one]
Kd (MKPX^KBD): ~14.1 µM and 14.1 µM
Kd (MKP5^KBD): ~8.5 µM and 8.5 µM
Kd (MKP3^FL): 9.2 ± 1.8 µM
Kd (MKP1^KBD): ~73.1 µM and 73.1 µM
Kd (MKP3^KBD): 15 µM and ~15 µM
Kd (MKP2^KBD): ~49 µM and 49 µM
binding by MST (MKP5^CD): no interaction was detected
binding by MST (MKP3^CD): no detectable binding; also recorded: no binding was detected
